Results published in ChEMBL document CHEMBL4507260 (2021).
Calls of active or inactive are those of the source. The calls are words filed in the database; no cut-off is given here.

How the values were obtained:
[1] = test system: Epidermal growth factor receptor (Homo sapiens), P00533 [G719C]; conditions: Compound concentration 1000.0 nM
[2] = biological target: Type-2 angiotensin II receptor (Homo sapiens) (UniProt P50052); conditions: Compound concentration 10.0 uM
Description: AT2 CEREP ligand profiling

[3] = biological target: Delta-type opioid receptor (Homo sapiens) (UniProt P41143); conditions: Compound concentration 10.0 uM
Description: delta CEREP ligand profiling

[4] = biological target: 5-hydroxytryptamine receptor 6 (Homo sapiens) (UniProt P50406); conditions: Compound concentration 10.0 uM
Description: 5-HT6 CEREP ligand profiling

[5] = biological target: Histamine H2 receptor (Homo sapiens) (UniProt P25021); conditions: Compound concentration 10.0 uM
Description: H2 CEREP ligand profiling

[6] = biological target: D(4) dopamine receptor (Homo sapiens) (UniProt P21917); conditions: Compound concentration 10.0 uM
Description: D4 CEREP ligand profiling

[7] = biological target: Muscarinic acetylcholine receptor M2 (Homo sapiens) (UniProt P08172); conditions: Compound concentration 10.0 uM
Description: M2 CEREP ligand profiling

[8] = biological target: Mu-type opioid receptor (Homo sapiens) (UniProt P35372); assay: mu CEREP ligand profiling; conditions: Compound concentration 10.0 uM
[9] = biological target: Sodium channel alpha subunit (Na+ channel) (Homo sapiens, UniProt P35498+P35499+Q01118+Q14524+Q15858+Q99250+Q9NY46+Q9UI33+Q9UQD0+Q9Y5Y9); assay: Na+ channel CEREP ligand profiling; format: protein assay; conditions: compound concentration 10 uM
[10] = biological target: GABA-A receptor; anion channel (Homo sapiens) (UniProt P14867+P47870+P18507+P28472+P48169+Q99928+Q9UN88+P34903+O00591+O14764+Q8N1C3+P18505+P78334+P47869+P31644+Q16445); conditions: Compound concentration 10.0 uM
Description: BZD (central) CEREP ligand profiling

[11] = biological target: D(4) dopamine receptor (Homo sapiens, UniProt P21917); assay: Radioligand assay (DRD4.7)
[12] = biological target: Beta-1 adrenergic receptor (Homo sapiens) (UniProt P08588); conditions: Compound concentration 10.0 uM
Description: b 1 CEREP ligand profiling

[13] = biological target: Neuromedin-K receptor (Homo sapiens) (UniProt P29371); assay: NK3 CEREP ligand profiling; conditions: Compound concentration 10.0 uM
[14] = biological target: Muscarinic acetylcholine receptor M1 (Homo sapiens) (UniProt P11229); conditions: Compound concentration 10.0 uM
Description: M1 CEREP ligand profiling

[15] = biological target: Kappa-type opioid receptor (Homo sapiens) (UniProt P41145); assay: kappa CEREP ligand profiling; conditions: Compound concentration 10.0 uM
[16] = biological target: C-C chemokine receptor type 1 (Homo sapiens) (UniProt P32246); conditions: Compound concentration 10.0 uM
Description: CCR1 CEREP ligand profiling

[17] = biological target: Gastrin/cholecystokinin type B receptor (Homo sapiens) (UniProt P32239); assay: CCKB (CCK2) CEREP ligand profiling; conditions: Compound concentration 10.0 uM
Sequence of Gastrin/cholecystokinin type B receptor (Homo sapiens) (P32239 whole entry): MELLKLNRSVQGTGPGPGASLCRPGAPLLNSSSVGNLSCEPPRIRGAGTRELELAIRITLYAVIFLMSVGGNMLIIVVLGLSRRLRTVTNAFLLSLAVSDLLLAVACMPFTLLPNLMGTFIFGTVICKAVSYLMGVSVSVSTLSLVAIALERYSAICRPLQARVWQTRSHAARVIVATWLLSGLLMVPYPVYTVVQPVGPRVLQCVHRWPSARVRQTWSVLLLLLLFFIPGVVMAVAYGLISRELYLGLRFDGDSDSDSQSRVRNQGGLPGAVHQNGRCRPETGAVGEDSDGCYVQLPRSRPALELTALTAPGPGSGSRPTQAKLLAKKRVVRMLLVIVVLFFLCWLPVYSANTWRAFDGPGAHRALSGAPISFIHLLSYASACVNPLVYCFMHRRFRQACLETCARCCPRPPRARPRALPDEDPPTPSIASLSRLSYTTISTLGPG

Sequence of Mu-type opioid receptor (Homo sapiens) (P35372 whole entry): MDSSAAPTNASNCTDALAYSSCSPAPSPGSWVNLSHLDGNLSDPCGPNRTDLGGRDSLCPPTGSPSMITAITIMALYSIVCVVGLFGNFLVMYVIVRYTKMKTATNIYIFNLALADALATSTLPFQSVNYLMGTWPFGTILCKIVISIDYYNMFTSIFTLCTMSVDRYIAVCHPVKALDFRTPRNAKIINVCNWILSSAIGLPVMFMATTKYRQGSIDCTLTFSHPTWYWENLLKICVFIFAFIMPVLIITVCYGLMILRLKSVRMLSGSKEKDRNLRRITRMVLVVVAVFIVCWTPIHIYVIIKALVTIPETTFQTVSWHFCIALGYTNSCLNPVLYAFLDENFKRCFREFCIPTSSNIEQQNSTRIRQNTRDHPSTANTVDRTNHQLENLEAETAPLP
Sequence of C-C chemokine receptor type 1 (Homo sapiens) (P32246 whole entry): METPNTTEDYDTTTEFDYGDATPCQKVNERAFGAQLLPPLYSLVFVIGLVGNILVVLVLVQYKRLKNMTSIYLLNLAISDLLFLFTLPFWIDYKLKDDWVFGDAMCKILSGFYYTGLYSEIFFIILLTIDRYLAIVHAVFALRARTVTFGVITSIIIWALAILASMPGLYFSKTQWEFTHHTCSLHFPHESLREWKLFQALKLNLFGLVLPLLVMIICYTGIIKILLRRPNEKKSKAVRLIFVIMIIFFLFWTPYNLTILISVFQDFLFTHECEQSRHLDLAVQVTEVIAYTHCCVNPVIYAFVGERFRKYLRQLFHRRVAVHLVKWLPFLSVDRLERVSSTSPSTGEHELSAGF
Sequence of Beta-1 adrenergic receptor (Homo sapiens) (P08588 whole entry, looked up): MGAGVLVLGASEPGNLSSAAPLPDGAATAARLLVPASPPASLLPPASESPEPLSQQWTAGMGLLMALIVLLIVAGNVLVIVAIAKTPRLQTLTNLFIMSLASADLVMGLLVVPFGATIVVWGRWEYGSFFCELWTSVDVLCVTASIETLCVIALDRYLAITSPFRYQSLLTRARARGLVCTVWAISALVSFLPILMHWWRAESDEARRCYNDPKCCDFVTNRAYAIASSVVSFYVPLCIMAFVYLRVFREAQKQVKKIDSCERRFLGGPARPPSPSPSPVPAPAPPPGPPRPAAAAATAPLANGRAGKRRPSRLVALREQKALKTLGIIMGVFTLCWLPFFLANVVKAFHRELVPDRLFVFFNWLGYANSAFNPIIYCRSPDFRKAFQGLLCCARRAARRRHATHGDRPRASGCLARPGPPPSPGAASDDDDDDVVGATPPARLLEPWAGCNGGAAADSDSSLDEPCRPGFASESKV
Sequence of 5-hydroxytryptamine receptor 6 (Homo sapiens) (P50406 whole entry): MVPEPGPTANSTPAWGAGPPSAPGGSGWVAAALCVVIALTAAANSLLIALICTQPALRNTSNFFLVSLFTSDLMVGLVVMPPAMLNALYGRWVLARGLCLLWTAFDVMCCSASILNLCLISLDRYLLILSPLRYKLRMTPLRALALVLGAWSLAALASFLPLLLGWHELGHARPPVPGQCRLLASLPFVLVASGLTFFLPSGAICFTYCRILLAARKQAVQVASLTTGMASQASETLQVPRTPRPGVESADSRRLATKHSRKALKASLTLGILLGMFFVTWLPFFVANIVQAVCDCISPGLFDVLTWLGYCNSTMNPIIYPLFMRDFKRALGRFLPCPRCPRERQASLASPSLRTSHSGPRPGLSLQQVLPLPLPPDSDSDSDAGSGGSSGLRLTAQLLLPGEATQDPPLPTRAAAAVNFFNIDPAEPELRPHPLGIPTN
Sequence of Type-2 angiotensin II receptor (Homo sapiens) (P50052 whole entry): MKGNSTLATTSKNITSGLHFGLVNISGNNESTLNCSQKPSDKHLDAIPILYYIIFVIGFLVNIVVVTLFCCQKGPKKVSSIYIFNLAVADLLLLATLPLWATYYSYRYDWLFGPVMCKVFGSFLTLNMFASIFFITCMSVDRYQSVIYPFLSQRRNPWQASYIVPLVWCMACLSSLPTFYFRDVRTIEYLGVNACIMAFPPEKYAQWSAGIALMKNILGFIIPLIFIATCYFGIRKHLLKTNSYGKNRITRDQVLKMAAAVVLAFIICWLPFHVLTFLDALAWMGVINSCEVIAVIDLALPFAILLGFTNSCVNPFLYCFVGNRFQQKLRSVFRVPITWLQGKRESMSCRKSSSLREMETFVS
Sequence of D(4) dopamine receptor (P21917 whole entry, looked up): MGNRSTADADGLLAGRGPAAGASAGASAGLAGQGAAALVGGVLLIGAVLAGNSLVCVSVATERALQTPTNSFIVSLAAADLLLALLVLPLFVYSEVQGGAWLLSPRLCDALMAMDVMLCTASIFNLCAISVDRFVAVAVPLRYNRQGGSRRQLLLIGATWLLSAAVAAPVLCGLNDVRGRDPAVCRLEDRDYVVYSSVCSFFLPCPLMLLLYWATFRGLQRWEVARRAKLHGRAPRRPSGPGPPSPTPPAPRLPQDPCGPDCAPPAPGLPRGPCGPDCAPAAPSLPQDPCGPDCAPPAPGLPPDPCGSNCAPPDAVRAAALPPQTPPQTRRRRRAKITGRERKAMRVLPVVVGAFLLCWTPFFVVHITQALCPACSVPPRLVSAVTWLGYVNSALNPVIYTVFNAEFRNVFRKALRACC
Sequence of D(4) dopamine receptor (Homo sapiens) (P21917 whole entry): as the sequence (P21917 whole entry, looked up) above
Sequence of Delta-type opioid receptor (Homo sapiens) (P41143 whole entry): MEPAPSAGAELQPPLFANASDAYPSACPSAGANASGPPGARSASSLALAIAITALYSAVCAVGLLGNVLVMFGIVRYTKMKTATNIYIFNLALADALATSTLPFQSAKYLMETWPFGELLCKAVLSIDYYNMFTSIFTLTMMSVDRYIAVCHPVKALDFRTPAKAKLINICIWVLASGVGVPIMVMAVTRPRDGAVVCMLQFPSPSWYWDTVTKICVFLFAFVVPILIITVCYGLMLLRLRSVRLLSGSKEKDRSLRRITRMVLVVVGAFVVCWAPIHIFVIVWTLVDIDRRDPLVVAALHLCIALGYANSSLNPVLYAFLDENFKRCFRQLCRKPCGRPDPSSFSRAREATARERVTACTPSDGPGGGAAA
Sequence of Neuromedin-K receptor (Homo sapiens) (P29371 whole entry): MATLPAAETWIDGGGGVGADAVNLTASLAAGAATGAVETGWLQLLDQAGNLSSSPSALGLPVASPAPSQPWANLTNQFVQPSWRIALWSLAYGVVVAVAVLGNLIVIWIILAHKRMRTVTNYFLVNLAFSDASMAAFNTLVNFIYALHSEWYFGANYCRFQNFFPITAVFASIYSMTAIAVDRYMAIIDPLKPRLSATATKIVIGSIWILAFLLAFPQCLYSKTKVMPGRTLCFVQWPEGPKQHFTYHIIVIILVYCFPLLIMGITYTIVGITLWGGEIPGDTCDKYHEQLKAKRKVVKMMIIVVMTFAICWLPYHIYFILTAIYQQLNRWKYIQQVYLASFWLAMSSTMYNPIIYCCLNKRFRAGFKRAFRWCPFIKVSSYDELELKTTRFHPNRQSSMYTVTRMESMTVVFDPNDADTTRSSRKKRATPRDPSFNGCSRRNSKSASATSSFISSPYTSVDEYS
Sequence of Histamine H2 receptor (Homo sapiens) (P25021 whole entry): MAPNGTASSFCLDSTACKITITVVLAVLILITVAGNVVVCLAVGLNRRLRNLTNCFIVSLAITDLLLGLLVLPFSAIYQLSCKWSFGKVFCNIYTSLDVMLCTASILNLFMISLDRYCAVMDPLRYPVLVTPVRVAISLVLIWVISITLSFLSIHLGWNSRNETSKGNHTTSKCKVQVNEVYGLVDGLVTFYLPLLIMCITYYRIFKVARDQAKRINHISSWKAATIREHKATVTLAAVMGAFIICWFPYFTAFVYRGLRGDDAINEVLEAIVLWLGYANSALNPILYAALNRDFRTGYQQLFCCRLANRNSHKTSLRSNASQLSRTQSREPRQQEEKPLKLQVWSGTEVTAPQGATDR
Sequence of Muscarinic acetylcholine receptor M1 (Homo sapiens) (P11229 whole entry): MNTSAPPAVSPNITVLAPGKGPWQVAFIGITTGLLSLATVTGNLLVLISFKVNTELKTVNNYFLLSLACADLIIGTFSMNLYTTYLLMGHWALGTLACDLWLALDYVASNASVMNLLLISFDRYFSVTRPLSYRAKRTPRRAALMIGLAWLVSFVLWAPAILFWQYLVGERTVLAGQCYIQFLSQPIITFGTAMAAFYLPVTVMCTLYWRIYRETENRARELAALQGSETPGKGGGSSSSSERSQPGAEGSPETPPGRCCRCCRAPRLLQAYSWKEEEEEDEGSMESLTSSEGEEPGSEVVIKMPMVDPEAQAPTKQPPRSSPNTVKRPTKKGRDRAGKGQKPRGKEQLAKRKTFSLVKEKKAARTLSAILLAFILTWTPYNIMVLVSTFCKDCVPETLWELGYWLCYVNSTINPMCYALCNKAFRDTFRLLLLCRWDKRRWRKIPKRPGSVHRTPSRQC

Structure (SMILES): CSc1cccnc1N1CCN(Cc2nc3ccccc3[nH]2)CC1 [A-769]
- residual activity [1]: 96%

Structure (SMILES): c1ccc(N2CCN(Cc3nc4ccccc4[nH]3)CC2)nc1 [ABT-724]
- inhibition [2]: < 10%
- inhibition [3]: < 10%
- inhibition [4]: < 10%
- inhibition [5]: < 10%
- inhibition [6]: 99%
- inhibition [7]: < 10%
- inhibition [8]: 51%
- inhibition at 10 µM [9]: < 10% (not active)
- inhibition [10]: < 10%
- Ki [11]: 46.8 nM (active)
- inhibition [12]: < 10%
- inhibition [13]: 26%
- inhibition [14]: < 10%
- inhibition [15]: 68%
- inhibition [16]: < 10%
- inhibition [17]: 17%
